Reference: patent publication EP4667458A1 (Kanaph Therapeutics Inc., priority 2023, dated 2024)

Target: T1, SOS1 (Homo sapiens, UniProt Q07889)
T1 construct: adding equal amounts of HIS-SOS1cat (160 nM; Cytoskeleton, US); His; purchased Cytoskeleton, US
T1 sequence (Q07889 564-1049 limits assumed): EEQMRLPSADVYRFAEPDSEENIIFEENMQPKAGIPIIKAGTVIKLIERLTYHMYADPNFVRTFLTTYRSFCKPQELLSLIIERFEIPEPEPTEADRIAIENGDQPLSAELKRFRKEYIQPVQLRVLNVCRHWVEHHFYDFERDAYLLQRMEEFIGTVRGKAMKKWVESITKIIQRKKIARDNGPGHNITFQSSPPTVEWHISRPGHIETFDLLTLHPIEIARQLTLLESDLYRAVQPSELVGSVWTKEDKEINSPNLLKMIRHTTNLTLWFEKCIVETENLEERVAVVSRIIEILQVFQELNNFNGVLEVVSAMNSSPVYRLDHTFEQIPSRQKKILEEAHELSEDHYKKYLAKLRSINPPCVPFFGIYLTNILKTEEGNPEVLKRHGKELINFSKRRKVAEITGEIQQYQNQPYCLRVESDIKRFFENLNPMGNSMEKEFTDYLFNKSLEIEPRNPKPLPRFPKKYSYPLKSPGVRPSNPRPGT
Assay: SOS-catalyzed nucleotide exchange assay (HTRF, SOS1-mediated GTP loading of KRAS G12D)
Type: biochemical
Details: GST-KRAS G12D, HIS-SOS1cat, EDA-GTP-DY-647P1; compound 128 pM to 10 µM; read-out: SOS-catalyzed nucleotide exchange assay (IC50 range, Grade)
Method: SOS1 activity was measured by SOS1-mediated GTP loading quantification of KRAS^G12D. GTP-loaded KRAS^G12D was detected by HTRF (Homogeneous Time Resolved Fluorescence) using anti-GST terbium (Cisbio, France) as a donor and a fluorescence GTP analogue (EDA-GTP-DY-647P1, [DY-647P1-labeled 2'/3'-O-(2-aminoethyl-carbamoyl)guanosine-5'-triphosphate (Jena bioscience, Germany)]) as an acceptor.
Assay buffer was composed of 10 mM HEPES pH 7.4, 150 mM NaCl, 5 mM MgCl2, 1 mM DTT, 0.05% BSA Fraction V pH 7.0 (Sigma) and 0.0025% (v/v) Igepal (Sigma). KRAS^G12D working solution was prepared by adding equal amounts of GST-KRAS^G12D (100 nM) and anti-GST-terbium (2 nM; Cisbio, France) to the assay buffer and incubating on ice for 10 minutes. SOS1cat working solution was prepared by adding equal amounts of HIS-SOS1cat (160 nM; Cytoskeleton, US) and EDA-GTP-DY-647P1 (200 nM; Jena bioscience, Germany) to the assay buffer. Control solution was prepared by adding equal volumes of EDA-GTP-DY-647P1 and the assay buffer for normalization control to exclude GEF-independent GTP loading and background signals. In order to induce a reaction, 5 µL of the SOS1cat working solution or the control solution was injected into each well. 5 µL of a compound having various concentrations from 128 pM to 10 µM was added to wells containing the SOS1cat working solution and incubated at room temperature for 10 minutes to bind to SOS1.
10 µL of the KRAS^G12D solution was added to each well and incubated for 30 minutes at room temperature while shaking. HTRF was measured using a Thermo Varioskan (excitation 334 nm, emission 665 nm). The IC50 of each inhibitor was analyzed using Graphad Prism.
The SOS1 inhibitory activity of the Example compounds measured by the above method was evaluated based on the following criteria, and the results are shown in Table 29.

Compound	IC50
Cc1cccc([C@@H](C)NC(=O)c2ccc(=O)n(-c3ccccc3)n2)c1 [Example 3, (R)-6-oxo-1-phenyl-N-(1-(m-tolyl)ethyl)-1,6-dihydropyridazine-3-carboxamide]	> 10 µM
C[C@@H](NC(=O)c1ccc(=O)n(-c2ccccc2)n1)c1ccc(Cl)cc1 [Example 5, (R)-N-(1-(4-chlorophenyl)ethyl)-6-oxo-1-phenyl-1,6-dihydropyridazine-3-carboxamide]	> 10 µM
C[C@@H](NC(=O)c1ccc(=O)n(-c2ccccc2)n1)c1ccc(Br)cc1 [Example 6, (R)-N-(1-(4-bromophenyl)ethyl)-6-oxo-1-phenyl-1,6-dihydropyridazine-3-carboxamide]	> 10 µM
Cc1ccc([C@@H](C)NC(=O)c2ccc(=O)n(-c3ccccc3)n2)cc1 [Example 7, (R)-6-oxo-1-phenyl-N-(1-(p-tolyl)ethyl)-1,6-dihydropyridazine-3-carboxamide]	> 10 µM
C[C@@H](NC(=O)c1ccc(=O)n(-c2ccccc2)n1)c1cccc2ccccc12 [Example 9, N-[(1R)-1-(1-naphthyl)ethyl]-6-oxo-1-phenyl-pyridazine-3-carboxamide]	1 to 10 µM
C[C@@H](NC(=O)c1ccc(=O)n(-c2ccccc2)n1)c1cccc(OC(F)(F)F)c1 [Example 10, 6-oxo-1-phenyl-N-[(1R)-1-[3-(trifluoromethoxy)phenyl]ethyl]pyridazine-3-carboxamide]	1 to 10 µM
C[C@@H](NC(=O)c1ccc(=O)n(-c2ccccc2)n1)c1cccc(S(C)(=O)=O)c1 [Example 11, N-[(1R)-1-(3-methylsulfonylphenyl)ethyl]-6-oxo-1-phenyl-pyridazine-3-carboxamide]	1 to 10 µM
C[C@@H](NC(=O)c1ccc(=O)n(-c2ccccc2)n1)c1ccc(S(C)(=O)=O)cc1 [Example 12, N-[(1R)-1-(4-methylsulfonylphenyl)ethyl]-6-oxo-1-phenyl-pyridazine-3-carboxamide]	> 10 µM
C[C@@H](NC(=O)c1ccc(=O)n(-c2ccccc2)n1)c1cccc(C2CC2)c1 [Example 14, N-[(1R)-1-(3-cyclopropylphenyl)ethyl]-6-oxo-1-phenyl-pyridazine-3-carboxamide]	1 to 10 µM

Next, values leading:

IC50	Compound
1 to 10 µM	1-(1-acetylpiperidin-4-yl)-N-[(1R)-1-[3-amino-5-(trifluoromethyl)phenyl]ethyl]-6-oxo-1,6-dihydropyridazine-3-carboxamide [Example 118]
1 to 10 µM	C[C@@H](NC(=O)c1ccc(=O)n(-c2ccccc2)n1)c1cccc(Cl)c1 [Example 1, N-[(1R)-1-(3-chlorophenyl)ethyl]-6-oxo-1-phenyl-pyridazine-3-carboxamide]
1 to 10 µM	C[C@@H](NC(=O)c1ccc(=O)n(-c2ccccc2)n1)c1cccc(Br)c1 [Example 2, N-[(1R)-1-(3-bromophenyl)ethyl]-6-oxo-1-phenyl-pyridazine-3-carboxamide]
1 to 10 µM	C[C@@H](NC(=O)c1ccc(=O)n(-c2ccccc2)n1)c1cccc(C#N)c1 [Example 4, (R)-N-(1-(3-cyanophenyl)ethyl)-6-oxo-1-phenyl-1,6-dihydropyridazine-3-carboxamide]
1 to 10 µM	C[C@@H](NC(=O)c1ccc(=O)n(-c2ccccc2)n1)c1ccc2ccccc2c1 [Example 8, N-[(1R)-1-(2-naphthyl)ethyl]-6-oxo-1-phenyl-pyridazine-3-carboxamide]
< 1 µM	C[C@@H](NC(=O)c1ccc(=O)n(-c2ccccc2)n1)c1cccc(Oc2ccccc2)c1 [Example 13, 6-oxo-N-[(1R)-1-(3-phenoxyphenyl)ethyl]-1-phenyl-pyridazine-3-carboxamide]
< 1 µM	C[C@@H](NC(=O)c1ccc(=O)n(-c2ccccc2)n1)c1cccc(C(F)(F)F)c1 [Example 15, 6-oxo-1-phenyl-N-[(1R)-1-[3-(trifluoromethyl)phenyl]ethyl]pyridazine-3-carboxamide]
< 1 µM	C[C@@H](NC(=O)c1ccc(=O)n(-c2ccccc2)n1)c1cc(N)cc(C(F)(F)F)c1 [Example 16, N-[(1R)-1-[3-amino-5-(trifluoromethyl)phenyl]ethyl]-6-oxo-1-phenyl-pyridazine-3-carboxamide]
